# Like-named read-outs stand apart in the source and are kept apart here.
# Assays:
# [1] = tested on: Sphaerotheca fuliginea; test: Sphaerotheca fuliginea potting method; type: in vivo; settings: Podosphaera fuliginea; 100 mg/L; read-out: Sphaerotheca fuliginea control rating
# Method: The fungicidal activity of the control agents and target compounds are determined. The test and investigation method refers to SOP-SC-1101 sphaerotheca fuliginea potting method in disinfectant rolls written by KANGZHUO and GUBAOGEN in “Standard operation specification for testing biological activity of pesticides”.
# [2] = tested on: Phytophthora infestans; type: cell-based
# [3] = tested on: Fusarium fujikura; test: Protective activity against rice bakanae disease; type: in vivo; settings: 5 μg/mL, solvent DMSO
# From the text: (§1) Test of protective activity and therapeutic activity of Compound 1 against rice bakanae disease.
# (§2) The test and investigation method refers to SOP-SC-1112 rice bakanae disease potting method in disinfectant rolls written by KANGZHUO and GUBAOGEN in “Standard operation specification for testing biological activity of pesticides”.
# (§3) The phenamacril is a mainstream medicament for preventing and treating the rice bakanae disease at present, resistant strains are more and more along with long-time use, and […] strains showing sensitivity and one strain showing resistance to the […] are selected as test strains.
# (§4) Four Fusarium fujikura SX18-32, SX18-50, SX18-59 and SX18-63 are selected for testing strains, and the current mainstream commercial bactericide phenamacril is selected as a positive control. Wherein SX18-32, SX18-50 and SX18-59 show sensitivity to phenamacril and SX18-63 show resistance to phenamacril.
# [4] = tested on: Fusarium fujikura; test: Therapeutic activity against rice bakanae disease; type: in vivo; settings: 5 μg/mL, solvent DMSO
# From the text: as §1, §2, §3, §4
# [5] = tested on: Phytophthora capsici; test: Mycelial growth rate method; type: cell-based
# [6] = biological target: T1, succinate dehydrogenase (Sus scrofa, UniProt A5GZW8+D0VWV4+Q007T0); test: Enzyme activity assay, succinate dehydrogenase (DCIP reduction); type: biochemical, porcine; settings: read-out: Inhibitors (10 μM, SQR)
# T1 construct: isolated from porcine hearts; from tissue; host or cells: porcine heart
# Outline: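 Porcine heart succinate dehydrogenase (2 nM) in 100 mM sodium phosphate pH 7.4, 0.3 mM EDTA, 20 mM sodium succinate and 53 μM DCIP at 23° C with stirring. DCIP reduction followed at 600 nm (ε 21 mM^−1 cm^−1); linear slope minus baseline gives initial rate.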
# [7] = tested on: Alternaria alternata; test: Mycelial growth rate method; type: cell-based
# [8] = tested on: Rhizoctonia cerealis; test: Mycelial growth rate method; type: cell-based
# [9] = tested on: Gibberella zeae; type: cell-based
# [10] = tested on: Fusarium wilt of water melon; test: Mycelial growth rate method; type: cell-based
# [11] = tested on: Erysiphe graminis; test: Erysiphe graminis potting method; type: in vivo; settings: Blumeria graminis; 100 mg/L; read-out: Erysiphe graminis control rating
# Method: The fungicidal activity of the control agents and target compounds are determined. The test and investigation method refers to SOP-SC-1116 Erysiphe graminis potting method in disinfectant rolls written by KANGZHUO and GUBAOGEN in “Standard operation specification for testing biological activity of pesticides”.
# [12] = tested on: Sclerotinia sclerotiorum; test: Mycelial growth rate method; type: cell-based
# [13] = tested on: Alternaria solani; test: Mycelial growth rate method; type: cell-based
# [14] = tested on: Sphaerotheca fuliginea; test: Field test of sphaerotheca fuliginea; type: in vivo
# Method: The test is carried out according to GB/T17980.30-2000 of pesticide field efficacy test guidelines. The survey method is to randomly take four points for each cell and survey all leaves of 2 plants per point. And investigating the sphaerotheca fuliginea incidence before the first application, and investigating the sphaerotheca fuliginea incidence 7 and 14 days after the second application respectively, and calculating the disease index and the controlling effect.
# [15] = tested on: Corn big spot; test: Mycelial growth rate method; type: cell-based
# [16] = strain SX18-59 (S), listed as compound 1
# [17] = strain SX18-63 (R), listed as compound 1
# T1 sequence (Q0QF01 43-664 partner): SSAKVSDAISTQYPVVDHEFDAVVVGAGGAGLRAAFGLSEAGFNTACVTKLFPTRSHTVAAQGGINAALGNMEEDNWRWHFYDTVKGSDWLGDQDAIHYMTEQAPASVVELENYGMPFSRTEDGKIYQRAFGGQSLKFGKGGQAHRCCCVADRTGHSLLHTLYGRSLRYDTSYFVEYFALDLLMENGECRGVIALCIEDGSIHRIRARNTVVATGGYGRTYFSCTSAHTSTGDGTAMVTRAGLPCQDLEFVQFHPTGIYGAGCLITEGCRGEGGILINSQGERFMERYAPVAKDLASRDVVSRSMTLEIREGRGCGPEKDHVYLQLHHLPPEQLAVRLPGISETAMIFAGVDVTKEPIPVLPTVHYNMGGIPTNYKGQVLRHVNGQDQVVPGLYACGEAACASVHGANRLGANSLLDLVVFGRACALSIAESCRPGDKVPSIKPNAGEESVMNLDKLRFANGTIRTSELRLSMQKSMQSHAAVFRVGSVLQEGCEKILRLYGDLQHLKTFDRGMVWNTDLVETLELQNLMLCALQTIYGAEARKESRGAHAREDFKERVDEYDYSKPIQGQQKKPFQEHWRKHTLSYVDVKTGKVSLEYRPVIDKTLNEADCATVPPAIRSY
# T1 sequence (Q007T0 29-280): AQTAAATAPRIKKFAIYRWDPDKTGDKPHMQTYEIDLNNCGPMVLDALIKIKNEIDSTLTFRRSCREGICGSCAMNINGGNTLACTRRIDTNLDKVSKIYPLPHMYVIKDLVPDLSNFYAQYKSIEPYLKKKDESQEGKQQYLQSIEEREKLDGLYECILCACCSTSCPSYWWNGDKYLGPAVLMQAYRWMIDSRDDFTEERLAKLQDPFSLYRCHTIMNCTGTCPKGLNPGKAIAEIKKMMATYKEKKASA
# T1 sequence (D0VWV4 30-169): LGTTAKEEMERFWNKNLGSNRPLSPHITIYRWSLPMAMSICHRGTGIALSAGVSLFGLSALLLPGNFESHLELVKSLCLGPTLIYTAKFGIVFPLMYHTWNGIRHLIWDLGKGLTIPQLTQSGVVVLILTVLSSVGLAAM
# T1 sequence (A5GZW8 57-159 limits assumed): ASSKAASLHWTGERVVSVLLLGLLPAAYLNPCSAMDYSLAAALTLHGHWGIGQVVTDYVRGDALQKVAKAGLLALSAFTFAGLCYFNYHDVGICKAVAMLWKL
smiles,measurement,setting,value
C=C(CN(C(=O)c1c(C(F)F)nn(C)c1F)C1CC1)c1ccc(Cl)cc1Cl [Compound 1],pest or weed control at 100 µg/mL,[1],80 to 100%
same,Inhibition ratio (%) Phytophthora infestans,[2]; 1.5625 μg/mL,A (80% ≤ A ≤ 100%)
same,Inhibition ratio (%) Phytophthora infestans,[2]; 6.25 μg/mL,A (80% ≤ A ≤ 100%)
same,Inhibition ratio (%) Phytophthora infestans,[2]; 25 μg/mL,A (80% ≤ A ≤ 100%)
same,Protective activity,[3]; strain SX18-32 (S),97.4%
same,Protective activity,"[3]; strain SX18-32 (S), listed as compound 1",more than 90%
same,Protective activity,[3]; strain SX18-59 (S),100.0%
same,Protective activity,[3]; [16],more than 90%
same,Protective activity,[3]; strain SX18-63 (R),93.7%
same,Protective activity,[3]; [17],more than 90%
same,Therapeutic activity,[4]; strain SX18-32 (S),60.2%
same,Therapeutic activity,[4]; strain SX18-59 (S),96.8%
same,Therapeutic activity,[4]; [16],96.8%
same,Therapeutic activity,[4]; strain SX18-63 (R),83.3%
same,Therapeutic activity,[4]; [17],far better therapeutic effect
same,Inhibition ratio (%) Phytophthora capsici,[5]; 1.5625 μg/mL,B (70% ≤ B < 80%)
same,Inhibition ratio (%) Phytophthora capsici,[5]; 6.25 μg/mL,A (80% ≤ A ≤ 100%)
same,Inhibition ratio (%) Phytophthora capsici,[5]; 25 μg/mL,A (80% ≤ A ≤ 100%)
same,inhibition at 10 µM,[6],> 90%
same,Inhibition ratio (%) Alternaria alternata,[7]; 1.5625 μg/mL,A (80% ≤ A ≤ 100%)
same,Inhibition ratio (%) Alternaria alternata,[7]; 6.25 μg/mL,A (80% ≤ A ≤ 100%)
same,Inhibition ratio (%) Alternaria alternata,[7]; 25 μg/mL,A (80% ≤ A ≤ 100%)
same,Inhibition ratio (%) Rhizoctonia cerealis,[8]; 1.5625 μg/mL,C (C <70%)
same,Inhibition ratio (%) Rhizoctonia cerealis,[8]; 6.25 μg/mL,B (70% ≤ B < 80%)
same,Inhibition ratio (%) Rhizoctonia cerealis,[8]; 25 μg/mL,A (80% ≤ A ≤ 100%)
same,Inhibition ratio (%) Gibberella zeae,[9]; 1.5625 μg/mL,A (80% ≤ A ≤ 100%)
same,Inhibition ratio (%) Gibberella zeae,[9]; 6.25 μg/mL,A (80% ≤ A ≤ 100%)
same,Inhibition ratio (%) Gibberella zeae,[9]; 25 μg/mL,A (80% ≤ A ≤ 100%)
same,Inhibition ratio (%) Fusarium wilt of water melon,[10]; 1.5625 μg/mL,A (80% ≤ A ≤ 100%)
same,Inhibition ratio (%) Fusarium wilt of water melon,[10]; 6.25 μg/mL,A (80% ≤ A ≤ 100%)
same,Inhibition ratio (%) Fusarium wilt of water melon,[10]; 25 μg/mL,A (80% ≤ A ≤ 100%)
same,pest or weed control at 100 µg/mL,[11],80 to 100%
same,Inhibition ratio (%) Sclerotinia sclerotiorum,[12]; 1.5625 μg/mL,C (C <70%)
same,Inhibition ratio (%) Sclerotinia sclerotiorum,[12]; 6.25 μg/mL,A (80% ≤ A ≤ 100%)
same,Inhibition ratio (%) Sclerotinia sclerotiorum,[12]; 25 μg/mL,A (80% ≤ A ≤ 100%)
same,Inhibition ratio (%) Alternaria solani,[13]; 1.5625 μg/mL,A (80% ≤ A ≤ 100%)
same,Inhibition ratio (%) Alternaria solani,[13]; 6.25 μg/mL,A (80% ≤ A ≤ 100%)
same,Inhibition ratio (%) Alternaria solani,[13]; 25 μg/mL,A (80% ≤ A ≤ 100%)
same,Controlling effect %,[14]; 50 mg/L,82%
same,Controlling effect %,"[14]; 50 mg/L, listed as compound 1",more than 80%
same,Controlling effect %,[14]; 100 mg/L,88%
same,Controlling effect %,"[14]; 100 mg/L, listed as compound 1",the same control effect as the current mainstream insecticides
same,Controlling effect %,[14]; 200 mg/L,92%
same,Inhibition ratio (%) Corn big spot,[15]; 1.5625 μg/mL,A (80% ≤ A ≤ 100%)
same,Inhibition ratio (%) Corn big spot,[15]; 6.25 μg/mL,A (80% ≤ A ≤ 100%)
same,Inhibition ratio (%) Corn big spot,[15]; 25 μg/mL,A (80% ≤ A ≤ 100%)
"CCOC(=O)C(C#N)=C(N)c1ccccc1 [Phenamacril, reference compound]",Protective activity,[3]; strain SX18-32 (S),83.6%
same,Protective activity,[3]; strain SX18-59 (S),58.8%
same,Protective activity,[3]; strain SX18-63 (R),19.6%
same,Therapeutic activity,[4]; strain SX18-32 (S),23.8%
same,Therapeutic activity,[4]; strain SX18-59 (S),50.0%
same,Therapeutic activity,"[4]; strain SX18-59 (S), listed as phenamacril",about 50%
same,Therapeutic activity,[4]; strain SX18-63 (R),0%
same,Therapeutic activity,"[4]; strain SX18-63 (R), listed as phenamacril",almost no therapeutic activity
CC(C(=C(Cl)Cl)c1ccc(C(F)(F)F)cc1Cl)N(C(=O)c1c(C(F)F)nn(C)c1F)C1CC1 (stereo not drawn) [Compound 211],pest or weed control at 100 µg/mL,[1],80 to 100%
same,inhibition at 10 µM,[6],> 90%
same,pest or weed control at 100 µg/mL,[11],80 to 100%
C=C(CN(C(=O)c1c(C(F)F)nn(C)c1F)C1CC1)c1cccc(S(=O)(=O)CC)c1 [Compound 53],pest or weed control at 100 µg/mL,[1],70 to 80%
same,inhibition at 10 µM,[6],> 90%
same,pest or weed control at 100 µg/mL,[11],80 to 100%
Cn1nc(C(F)F)c(C(=O)N(CC(=C(Cl)Cl)c2ccc(Br)cc2)C2CC2)c1F [Compound 131],pest or weed control at 100 µg/mL,[1],80 to 100%
same,inhibition at 10 µM,[6],> 90%
same,pest or weed control at 100 µg/mL,[11],80 to 100%
CC(C(=C(Cl)Cl)c1ccc(F)c(F)c1)N(C(=O)c1c(C(F)F)nn(C)c1F)C1CC1 (stereo not drawn) [Compound 183],pest or weed control at 100 µg/mL,[1],80 to 100%
same,inhibition at 10 µM,[6],> 90%
same,pest or weed control at 100 µg/mL,[11],80 to 100%
Cn1nc(C(F)F)c(C(=O)N(CC(=C(Cl)Cl)c2ccc(F)cc2F)C2CC2)c1F [Compound 126],pest or weed control at 100 µg/mL,[1],80 to 100%
same,inhibition at 10 µM,[6],> 90%
same,pest or weed control at 100 µg/mL,[11],80 to 100%
